Measurements taken from patent US10501522B2, “Peptides and combination of peptides for use in immunotherapy against various tumors” (IMMATICS BIOTECHNOLOGIES GMBH, priority 2015, dated 2019).

System: CD8+ T cells
Test: In vitro T-cell priming assay with aAPCs loaded with peptide/MHC and anti-CD28, pMHC multimer readout
Assay type: cell-based, human
Settings: in vitro immunogenicity, HLA-A*02 restricted peptides; percentage of positive wells (among evaluable)
Source text: In order to obtain information regarding the immunogenicity of the TUMAPs of the present invention, the inventors performed investigations using an in vitro T-cell priming assay based on repeated stimulations of CD8+ T cells with artificial antigen presenting cells (aAPCs) loaded with peptide/MHC complexes and anti-CD28 antibody.
In order to perform in vitro stimulations by artificial antigen presenting cells loaded with peptide-MHC complex (pMHC) and anti-CD28 antibody, the inventors first isolated CD8+ T cells from fresh HLA-A*02 leukapheresis products via positive selection using CD8 microbeads (Miltenyi Biotec, Bergisch-Gladbach, Germany) of healthy donors obtained from the University clinics Mannheim, Germany, after informed consent. PBMCs and isolated CD8+ lymphocytes were incubated in T-cell medium (TCM) until use consisting of RPMI-Glutamax (Invitrogen, Karlsruhe, Germany) supplemented with 10% heat inactivated human AB serum (PAN-Biotech, Aidenbach, Germany), 100 U/ml Penicillin/100 μg/ml Streptomycin (Cambrex, Cologne, Germany), 1 mM sodium pyruvate (CC Pro, Oberdorla, Germany), 20 μg/ml Gentamycin (Cambrex). 2.5 ng/ml IL-7 (PromoCell, Heidelberg, Germany) and 10 U/ml IL-2 (Novartis Pharma, Nürnberg, Germany) were also added to the TCM at this step. Generation of pMHC/anti-CD28 coated beads, T-cell stimulations and readout was performed in a highly defined in vitro system using four different pMHC molecules per stimulation condition and 8 different pMHC molecules per readout condition.
The purified co-stimulatory mouse IgG2a anti human CD28 Ab 9.3 (Jung et al., 1987) was chemically biotinylated using Sulfo-N-hydroxysuccinimidobiotin as recommended by the manufacturer (Perbio, Bonn, Germany). Beads used were 5.6 μm diameter streptavidin coated polystyrene particles (Bangs Laboratories, Illinois, USA).
pMHC used for positive and negative control stimulations were A*0201/MLA-001 (peptide […] (SEQ ID NO. 289) from modified Melan-A/MART-1) and A*0201/DDX5-001 ([…] from DDX5, SEQ ID NO. 290), respectively.
800.000 beads/200 μl were coated in 96-well plates in the presence of 4×12.5 ng different biotin-pMHC, washed and 600 ng biotin anti-CD28 were added subsequently in a volume of 200 μl. Stimulations were initiated in 96-well plates by co-incubating […] CD8+ T cells with 2×10^5 washed coated beads in 200 μl TCM supplemented with 5 ng/ml IL-12 (PromoCell) for 3 days at 37° C. Half of the medium was then exchanged by fresh TCM supplemented with 80 U/ml IL-2 and incubating was continued for 4 days at 37° C. This stimulation cycle was performed for a total of three times. For the pMHC multimer readout using 8 different pMHC molecules per condition, a two-dimensional combinatorial coding approach was used as previously described (Andersen et al., 2012) with minor modifications encompassing coupling to 5 different fluorochromes. Finally, multimeric analyses were performed by staining the cells with Live/dead near IR dye (Invitrogen, Karlsruhe, Germany), CD8-FITC antibody clone SK1 (BD, Heidelberg, Germany) and fluorescent pMHC multimers. For analysis, a BD LSRII SORP cytometer equipped with appropriate lasers and filters was used. Peptide specific cells were calculated as percentage of total CD8+ cells. Evaluation of multimeric analysis was done using the FlowJo software (Tree Star, Oreg., USA). In vitro priming of specific multimer+ CD8+ lymphocytes was detected by comparing to negative control stimulations.

Substance	Wells positive [%]
4 (VLFGELPAL; listed as Homo sapiens) [compound 4]	+ (<20% = +)
9 (SLITGQDLLSV; listed as Homo sapiens) [compound 9]	+ (<20% = +)
14 (YTFSGDVQL; listed as Homo sapiens) [compound 14]	+ (<20% = +)
17 (GLLPSAESIKL; listed as Homo sapiens) [compound 17]	+ (<20% = +)
27 (GLLGKVTSV; listed as Homo sapiens) [compound 27]	+ (<20% = +)
29 (KMISAIPTL; listed as Homo sapiens) [compound 29]	+ (<20% = +)
34 (TLNTLDINL; listed as Homo sapiens) [compound 34]	++++ (≥70% = ++++)
35 (VIIKGLEEI; listed as Homo sapiens) [compound 35]	+ (<20% = +)
39 (YLEDGFAYV; listed as Homo sapiens) [compound 39]	++++ (≥70% = ++++)
50 (ILLSVLHQL; listed as Homo sapiens) [compound 50]	+ (<20% = +)
66 (AMFPDTIPRV; listed as Homo sapiens) [compound 66]	+ (<20% = +)
77 (ALYGNVQQV; listed as Homo sapiens) [compound 77]	+ (<20% = +)
89 (SLAETIFIV; listed as Homo sapiens) [compound 89]	+ (<20% = +)
97 (KLFEKSTGL; listed as Homo sapiens) [compound 97]	+ (<20% = +)
101 (SLLEVNEASSV; listed as Homo sapiens) [compound 101]	+ (<20% = +)
102 (GLYPVTLVGV; listed as Homo sapiens) [compound 102]	+ (<20% = +)
121 (ALYVQAPTV; listed as Homo sapiens) [compound 121]	+ (<20% = +)
157 (ILQDGQFLV; listed as Homo sapiens) [compound 157]	+ (<20% = +)
233 (SLFESLEYL; listed as Homo sapiens) [compound 233]	+ (<20% = +)
236 (KMSELQTYV; listed as Homo sapiens) [compound 236]	+ (<20% = +)
242 (KLQEEIPVL; listed as Homo sapiens) [compound 242]	+ (<20% = +)
246 (ALAGIVTNV; listed as Homo sapiens) [compound 246]	+ (<20% = +)
254 (ALGDKFLLRV; listed as Homo sapiens) [compound 254]	+ (<20% = +)
255 (FLMKNSDLYGA; listed as Homo sapiens) [compound 255]	+ (<20% = +)
257 (KLIDHQGLYL; listed as Homo sapiens) [compound 257]	+ (<20% = +)
260 (ALNESLVEC; listed as Homo sapiens) [compound 260]	+ (<20% = +)
263 (SIIEYLPTL; listed as Homo sapiens) [compound 263]	+ (<20% = +)
264 (TLHDQVHLL; listed as Homo sapiens) [compound 264]	+ (<20% = +)
267 (YLLDMPLWYL; listed as Homo sapiens) [compound 267]	+ (<20% = +)

Same assay, conditions: percentage of positive donors; HLA-A*02 healthy donor CD8+ T cells, three stimulation cycles

Substance	in vitro immunogenicity: donors
288 (SLYKGLLSV; listed as Homo sapiens) [compound 288]	++++ (≥70% = ++++)

Same assay, conditions: percentage of positive wells; HLA-A*02 healthy donor CD8+ T cells, three stimulation cycles

Substance	in vitro immunogenicity: wells
287 (KIQEILTQV; listed as Homo sapiens) [compound 287]	+ (<20% = +)
288 (SLYKGLLSV; listed as Homo sapiens) [compound 288]	++ (20%-49% = ++)
